In general, IC50 refers to the concentration at which inhibition is half-maximal.

For data set [1], the system named is WEHI-231 JM cells. The experiment in a line: Viability by PI staining and FACS, WEHI-231 JM. The data set is classed as cell-based, murine. To be noted: Mus musculus, WEHI231, 24 hours. The procedure:
(§1) FIG. 11B. WEHI-231 JM and OE cells are equally sensitive to inhibition of sphingosine kinase and exogenous ceramide. Cells were treated with increasing concentrations of C2-ceramide or DL-threo-dihydrosphingosine--apotent inhibitor of sphingosine kinase. Viability was assayed using PI staining and FACS analysis 24 hours after treatment.
(§2) For viability staining, 2.5-3.5×10^5 cells were treated with varying concentrations of C2-ceramide, irradiation, or both.
(§3) In order to address the question of whether the resistance of the OE subline was due, in part, to alterations in ceramide metabolites or targets, three studies were performed. […] Both cell lines were equally susceptible to the effects of sphingosine kinase inhibition and the resulting […] in ceramide. […] Thus the radioresistance can be attributed to the lack of sphingomyelinase activation and the subsequent decreased ceramide production following irradiation.

For data set [2], the system named is WEHI-231 OE cells. The experiment in a line: Viability by PI staining and FACS, WEHI-231 OE. The data set is classed as cell-based, murine. To be noted: Mus musculus, WEHI231, 24 hours. The method, then:
as §1, §2, §3

The test system of data set [3] is WEHI-231 OE cells. The experiment in a line: Resistance of selected WEHI-231 OE variants to n-oleoylethanolamine. Format: cell-based, murine. To be noted: 75 μM n-oleoylethanolamine. The procedure: WEHI-231 JM cells (1×10^7) were treated with two successive treatments of 100 μM and 125 μM N-oleoylethanolamine (Matreya), a potent inhibitor of ceramidase (Coroneos et al., 1995; Ambrosini et al., 1994). Cells were grown in media containing n-oleoylethanolamine for 96 hours. Serial dilutions isolated individual resistant cells and were expanded after each selection. Every two weeks cells were re-selected with 125 μM n-oleoethanolamine.

The subject of data set [4] is WEHI-231 JM cells. The experiment in a line: Intracellular ceramide accumulation in WEHI-231 JM cells. To be noted: within 24 hours. Format: cell-based, murine. The procedure:
Quantitation of ceramide by diacylglycerol kinase was similar to that described by Dressler and Kolesnick (1990). After irradiation, lipids were extracted and resuspended by bath sonication in 20 μl of 7.5% n-octyl-β-D-glucopyranoside, 5 mM cardiolipin, 1 mM DETAPAC. Seventy μl of a reaction mix was added to give a final concentration of 0.05M imidazole/HCl pH 6.6, 0.05M NaCl, 12.5 mM MgCl2, 1 mM EGTA and DAG kinase at a concentration of 0.7 U/ml. The reaction was started by the addition of 10 μl of [γ-^32 P]ATP (1.0 μCi/tube) in 5 mM ATP and incubated at room temperature for 30 min and stopped by the extraction of lipids with 450 μl of CHCl3 :CH3 OH (1:2) and 20 μl of 1% HClO4. The monophase was mixed and after 10 min., 150 μl CHCl3 and 150 μl of 1% HClO4 were added and the tubes vortexed and centrifuged at 5000 g for 5 min. The lower organic phase was washed twice with 1% HClO4 and then dried in a Speed Vac Apparatus. The phosphorylation products, ceramide-1-phosphate and phosphatidic acid (fom DAG) were resolved on a 10 cm×10 cm LH P-K TLC plate (Whatman). Data was calculated as pmoles of ceramide/10^6 cells by scintillation counting. In Example 6, data (mean +/- SD) represent at least 4 independent studies in which *p<002 compared with unirradiated controls. […]

Data set [5] deals with HL-60 cells. To be noted: literature reports; cited from earlier work.
Data set [6] relates to WEHI-231 cells. The experiment in a line: Apoptosis / cell death of WEHI-231 (propidium iodide FACS, gel electrophoresis, DAPI). To be noted: chelerythrine 10 μM or calphostin C 250 nM. Format: cell-based, murine. The procedure:
Cells undergoing apoptosis also shrink in size.
Cells, 5×10^5, were centrifuged at 1000 rpm and resuspended in approximately 100 μl cell culture media. The cell suspension was then mixed with 100 μl of DAPI (4',6-iamidino-2-phenylindole, Sigma D9542, 1 μg/ml in PBT (PBS+1% Triton X-100)). One drop of this mixture was placed on a microslide with a coverslip. The cells were viewed by fluorescence microscopy using an Olympus BX-40 microscope with a 100 Watt Mercury lamp, a 16 or 40 X Fluorite objective, N.A. 0.75, (Leco #1-UB527) and a UV filter cube (ex 330-385 nm, em 420 nm, wide band pass, Leco #U-M536). Images were photographed using an Optronics cooled low-light video camera (Leco #DEI-470TB) to which was attached a 2X coupler (Leco #HR200-CMT). The image was saved to a digital file at 72 dpi.
DNA degradation was assessed as previously described (Gottschalk et al., 1993; 1994). Briefly, following treatment in 100 mm plates or 24 well plates, cells were collected and lysed in 0.5 ml lysis buffer (0.6% SDS+10 mM EDTA, pH 7.0). NaCl was added to a final concentration of 1M, mixed by inversion, incubated for 12 hours at 4° C. and then spun at 14,000 g for 30 minutes. Samples were treated with chloroform (1:1) and precipitated in ethanol prior to electrophoresis in a 3% agarose gel and visualized with ethidium bromide.

In data set [7] the test system is WEHI-231 cells. The experiment in a line: Ceramide production by DAG kinase assay. To be noted: 250 nM calphostin C, 2 hours. Format: cell-based, murine. The procedure: (§4) FIG. 7A. Inhibition of PKC causes an increase in ceramide production through the activation of a neutral sphingomyelinase and decreases in sphingomyelin levels. Ceramide production was quantitated using the DAG kinase assay for WEHI-231 JM cells and total lipid extraction was used to assay sphingomyelin mass. Following addition of 10 μM chelerythrine, cells were lysed at the appropriate time points as described herein. Each data point represents the average percentage change in ceramide or sphingomyelin generation from baseline derived from at least 8 independent studies for all time points with the exception of those marked with * (n=4). Standard deviations depicted by error bars.
(§5) FIG. 7B. […] Ceramide production and sphingomyelin mass was quantitated identical to that for chelerythrine. Cells were lysed 2 hours following the addition of 250 nM calphostin C. […]
Quantitation of ceramide by diacylglycerol kinase was similar to that described by Dressler and Kolesnick (1990). […] Data was calculated as pmoles of ceramide/10^6 cells by scintillation counting. […]
In order to test whether PKC inhibition alters ceramide production, the DAG kinase assay was used to quantify intracellular ceramide following chelerythrine and calphostin C treatment (Dressler and Kolesnick, 1990; Preiss et al., 1986). […]

The subject of data set [8] is WEHI-231 cells. The experiment in a line: Sphingomyelin mass by lipid extraction / TLC. Format: cell-based, murine. To be noted: 250 nM calphostin C, 2 hours. The method, then: as §4, §5
Cells were prelabeled with [^3 H] palmitate (10 μCi/ml) for 24 hours to isotopic equilibrium in 15 ml glass tubes to minimize changes in cellular ceramide and sphingomyelin due to handling and changing of media (Borchardt et al., 1994). […] Autoradiographs were quantitated using an Epson 1200 c 30 bit scanner and NIH Image software (public domain program developed at the NIH and available from the Internet via FTP from zippy.nimh.nih.gov). […]

In data set [9] the test system is protein kinase C (PKC). To be noted: cited from earlier work.
For data set [10], the system named is cyclic-AMP kinase (PKA). To be noted: cited from earlier work.
In data set [11] the test system is WEHI-231 cells. To be noted: Chmura et al., 1996a; cited from earlier work.

Consider `CCCCCCCCCCCCCCC[C@H](O)[C@@H](N)CO` (relative stereo) [DL-threo-dihydrosphingosine], for which the IC50 in data set [1] and in [2] was 3 µM throughout.

In the case of `CCCCCCCC/C=C\CCCCCCCC(=O)NCCO` [N-oleoylethanolamine], in [3], the “resistance to apoptosis vs parental line” value is on record as 3 fold. Further, in data set [4], the “intracellular accumulation of ceramide” value is on record as “rose within 24 hours in a dose dependent manner”.

As to `CN[C@@H]1C[C@H]2O[C@@](C)([C@@H]1OC)n1c3ccccc3c3c4c(c5c6ccccc6n2c5c31)C(=O)NC4` [staurosporine], the “apoptosis in HL-60 cells” value in data set [5] is “both to antagonize (Cotter et al., 1992) and to initiate apoptosis in HL-60 cells”.

For the molecule Calphostin C, in [6] (24 hours), the cell death result is “greater than 90%”. Besides, the “DNA laddering and nuclear condensation” value in [6] is “DNA laddering and nuclear condensation”. Moreover, the “ceramide production” value in [7] is “induced cerarnide production”. In data set [8], the “sphingomyelin levels” value is “decreased sphingomyelin levels”. Also, the “specificity at blocking PKC vs staurosporin and H7” value in [9] is “at least 30 fold”. For the same molecule, the “inhibition of PKA” value in data set [10] (at concentrations used for the inventors' studies) is listed as “do not appear to inhibit other kinases”. The IC50 in [10] is 50 µM. Further, the “interaction with exogenous ceramide analogs in inducing apoptosis” value in data set [11] is on record as “act in synergy with exogenous ceramide analogs to induce apoptosis”.

Values taken from patent US6025365A, “Chelerythrine and radiation combined tumor therapy” (Arch Development Corp., priority 1997, dated 2000).
